Laboratory results from patent publication US20240383874A1, “BENZENE RING DERIVATIVE, AND COMPOSITION AND PHARMACEUTICAL USE THEREOF” (Xizang Haisco Pharmaceutical Co., Ltd., priority 2020, published 2024).
Where a name gives a salt, the structure may show the parent alone.

Test system: 22RV1 cells
Experiment: Experiment 2 on inhibiting 22RV1 cell proliferation (7 days, CellTiter-Glo)
Format: cell-based
Details: Homo sapiens, 22Rv1, 168 h, 1% css-FBS phenol red-free medium, incubated with compound 7 days, read-out: IC50 values on proliferation inhibition of 22RV1 cells
Experimental: Prostate cancer cells 22RV1 were purchased from ATCC, the cell medium was RPMI 1640+10% FBS, and the cells were cultured in an incubator at 37° C. under 5% CO2. On day 1, the cells in an exponential phase were collected. With a 1% css-FBS phenol red-free medium, the cell suspension was adjusted to a corresponding concentration, plated at 2000 cells/well and incubated overnight. On day 2, compounds at different concentrations were added, and the plate was placed in the incubator and incubated for further 7 days. After the incubation was completed, according to operation instructions for a CellTiter-Glo kit (Promega, G7573), 50 μL of CTG solution, which was already pre-melted and equilibrated to room temperature, was added to each well, and the mixtures were uniformly mixed for 2 min using a microplate shaker. The plate was placed at room temperature for 10 min, and then fluorescence signal values were measured using a microplate reader (PHERAstar FSX). The results were processed according to formula (2), the survival rate of the compound at different concentrations was calculated, and the IC50 value of the compound with a survival rate of 50% was calculated using origin9.2 software with DoseResp function, wherein RLU compound was the readout of the treated group, and RLU control was the average value of the DMSO vehicle control group.

Structure (SMILES) | IC50 [nM]
Cn1c(=O)n(C2CCC(=O)NC2=O)c2cccc(CN3CC(N4CCC(N5CCC6(CCN(c7nccc(COc8ccc(C(C)(C)c9cc(Cl)c(OCCCl)c(C#N)c9)cc8)n7)CC6)CC5)CC4)C3)c21 (stereo not shown) [Compound 31 trifluoroacetate, 3-chloro-2-(2-chloroethoxy)-5-(2-(4-((2-(9-(1-(1-((1-(2,6-dioxopiperidin-3-yl)-3-methyl-2-oxo-2,3-dihydro-1H-benzo[d]imidazol-4-yl)methyl)azetidin-3-yl)piperidin-4-yl)-3,9-diazaspiro[5.5]undecan-3-yl)pyrimidin-4-yl)methoxy)phenyl)propan-2-yl)benzonitrile] | 401
CC(C)(c1ccc(OCc2ccnc(N3CCC(C4CCN(CC5CCN(c6ccc7c(c6)C(=O)N(C6CCC(=O)NC6=O)C7=O)CC5)CC4)CC3)n2)cc1)c1cc(Cl)cc(C#N)c1 (stereo not shown) [Compound 38 trifluoroacetate, 3-chloro-5-(2-(4-((2-(1′-((1-(2-(2,6-dioxopiperidin-3-yl)-1,3-dioxoisoindolin-5-yl)piperidin-4-yl)methyl)-[4,4′-bipiperidin]-1-yl)pyrimidin-4-yl)methoxy)phenyl)propan-2-yl)benzonitrile] | 883
CC(C)(c1ccc(OCc2ccnc(N3CCC(CN4CCN(c5cccc6c5C(=O)N(C5CCC(=O)NC5=O)C6=O)CC4)CC3)n2)cc1)c1cc(Cl)cc(C#N)c1 (stereo not shown) [Compound 39 trifluoroacetate, 3-chloro-5-(2-(4-((2-(4-((4-(2-(2,6-dioxopiperidin-3-yl)-1,3-dioxoisoindolin-4-yl)piperazin-1-yl)methyl)piperidin-1-yl)pyrimidin-4-yl)methoxy)phenyl)propan-2-yl)benzonitrile] | 936
CC(C)(c1ccc(OCc2ccnc(N3CCC(N4CCC(CN5CCN(c6cccc7c6C(=O)N(C6CCC(=O)NC6=O)C7=O)CC5)CC4)CC3)n2)cc1)c1cc(Cl)cc(C#N)c1 (stereo not shown) [Compound 40 trifluoroacetate, 3-chloro-5-(2-(4-((2-(4-((4-(2-(2,6-dioxopiperidin-3-yl)-1,3-dioxoisoindolin-4-yl)piperazin-1-yl)methyl)-[1,4′-bipiperidin]-1′-yl)pyrimidin-4-yl)methoxy)phenyl)propan-2-yl)benzonitrile] | 764
CC(C)(c1ccc(OCc2ccnc(N3CCC(CN4CCN(c5ccc6c(c5)C(=O)N(C5CCC(=O)NC5=O)C6=O)CC4)CC3)n2)cc1)c1cc(Cl)cc(C#N)c1 (stereo not shown) [Compound 41 trifluoroacetate, 3-chloro-5-(2-(4-((2-(4-((4-(2-(2,6-dioxopiperidin-3-yl)-1,3-dioxoisoindolin-5-yl)piperazin-1-yl)methyl)piperidin-1-yl)pyrimidin-4-yl)methoxy)phenyl)propan-2-yl)benzonitrile] | 633
CC(C)(c1ccc(OCc2ccnc(N3CCC(N4CCC(CN5CCN(c6ccc7c(c6)C(=O)N(C6CCC(=O)NC6=O)C7=O)CC5)CC4)CC3)n2)cc1)c1cc(Cl)cc(C#N)c1 (stereo not shown) [Compound 42 trifluoroacetate, 3-chloro-5-(2-(4-((2-(4-((4-(2-(2,6-dioxopiperidin-3-yl)-1,3-dioxoisoindolin-5-yl)piperazin-1-yl)methyl)-[1,4′-bipiperidin]-1′-yl)pyrimidin-4-yl)methoxy)phenyl)propan-2-yl)benzonitrile] | 453
Cc1ncsc1-c1ccc([C@H](C)NC(=O)[C@@H]2C[C@@H](O)CN2C(=O)[C@@H](NC(=O)CN2CCC(N3CCC(CN4CCN(c5nccc(COc6ccc(C(C)(C)c7cc(Cl)cc(C#N)c7)cc6)n5)CC4)CC3)CC2)C(C)(C)C)cc1 [Compound 43 trifluoroacetate, (2S,4R)-1-((S)-2-(2-(4-((4-(4-((4-(2-(3-chloro-5-cyanophenyl)propan-2-yl)phenoxy)methyl)pyrimidin-2-yl)piperazin-1-yl)methyl)-[1,4′-bipiperidin]-1′-yl)acetamido)-3,3-dimethylbutanoyl)-4-hydroxy-N-((S)-1-(4-(4-methylthiazol-5-yl)phenyl)ethyl)pyrrolidine-2-carboxamide] | 94
CC(C)(c1ccc(OCc2ccnc(N3CCN(C4CCN(C5CCC6(CC5)CN(c5ccc7c(c5)C(=O)N(C5CCC(=O)NC5=O)C7=O)C6)CC4)CC3)n2)cc1)c1cc(Cl)cc(C#N)c1 (stereo not shown) [Compound 46 trifluoroacetate, 3-chloro-5-(2-(4-((2-(4-(1-(2-(2-(2,6-dioxopiperidin-3-yl)-1,3-dioxoisoindolin-5-yl)-2-azaspiro[3.5]nonan-7-yl)piperidin-4-yl)piperazin-1-yl)pyrimidin-4-yl)methoxy)phenyl)propan-2-yl)benzonitrile] | 461
CC(C)(c1ccc(OCc2ccnc(N3CC(N4CCC(CN5CCN(c6ccc7c(c6)C(=O)N(C6CCC(=O)NC6=O)C7=O)CC5)CC4)C3)n2)cc1)c1cc(Cl)cc(C#N)c1 (stereo not shown) [Compound 47 trifluoroacetate, 3-chloro-5-(2-(4-((2-(3-(4-((4-(2-(2,6-dioxopiperidin-3-yl)-1,3-dioxoisoindolin-5-yl)piperazin-1-yl)methyl)piperidin-1-yl)azetidin-1-yl)pyrimidin-4-yl)methoxy)phenyl)propan-2-yl)benzonitrile] | 724
CC(C)(c1ccc(OCc2ccnc(N3CC(N4CCC(CN5CCN(c6cccc7c6C(=O)N(C6CCC(=O)NC6=O)C7=O)CC5)CC4)C3)n2)cc1)c1cc(Cl)cc(C#N)c1 (stereo not shown) [Compound 48 trifluoroacetate, 3-chloro-5-(2-(4-((2-(3-(4-((4-(2-(2,6-dioxopiperidin-3-yl)-1,3-dioxoisoindolin-4-yl)piperazin-1-yl)methyl)piperidin-1-yl)azetidin-1-yl)pyrimidin-4-yl)methoxy)phenyl)propan-2-yl)benzonitrile] | 608
CC(C)(c1ccc(OCc2ccnc(N3CCN(C4CCN(CC5CCN(c6ccc7c(c6)C(=O)N(C6CCC(=O)NC6=O)C7=O)CC5)CC4)CC3)n2)cc1)c1cc(Cl)cc(C#N)c1 (stereo not shown) [Compound 49 trifluoroacetate, 3-chloro-5-(2-(4-((2-(4-(1-((1-(2-(2,6-dioxopiperidin-3-yl)-1,3-dioxoisoindolin-5-yl)piperidin-4-yl)methyl)piperidin-4-yl)piperazin-1-yl)pyrimidin-4-yl)methoxy)phenyl)propan-2-yl)benzonitrile] | 494
Cc1ncsc1-c1ccc([C@H](C)NC(=O)[C@@H]2C[C@@H](O)CN2C(=O)[C@@H](NC(=O)CN2CCC(CN3CCC(N4CCN(c5nccc(COc6ccc(C(C)(C)c7cc(Cl)cc(C#N)c7)cc6)n5)CC4)CC3)CC2)C(C)(C)C)cc1 [Compound 50 trifluoroacetate, (2S,4R)-1-((S)-2-(2-(4-((4-(4-(4-((4-(2-(3-chloro-5-cyanophenyl)propan-2-yl)phenoxy)methyl)pyrimidin-2-yl)piperazin-1-yl)piperidin-1-yl)methyl)piperidin-1-yl)acetamido)-3,3-dimethylbutanoyl)-4-hydroxy-N-((S)-1-(4-(4-methylthiazol-5-yl)phenyl)ethyl)pyrrolidine-2-carboxamide] | 398
Cc1ncsc1-c1ccc([C@H](C)NC(=O)[C@@H]2C[C@@H](O)CN2C(=O)[C@@H](NC(=O)CN2CCC(CN3CCN(c4nccc(COc5ccc(C(C)(C)c6cc(Cl)cc(C#N)c6)cc5)n4)CC3)CC2)C(C)(C)C)cc1 [Compound 51 trifluoroacetate, (2S,4R)-1-((S)-2-(2-(4-((4-(4-((4-(2-(3-chloro-5-cyanophenyl)propan-2-yl)phenoxy)methyl)pyrimidin-2-yl)piperazin-1-yl)methyl)piperidin-1-yl)acetamido)-3,3-dimethylbutanoyl)-4-hydroxy-N-((S)-1-(4-(4-methylthiazol-5-yl)phenyl)ethyl)pyrrolidine-2-carboxamide] | 825
CC(C)(c1ccc(OCc2ccnc(N3CCN(C4CN(C5CCCN(c6ccc7c(c6)C(=O)N(C6CCC(=O)NC6=O)C7=O)C5)C4)CC3)n2)cc1)c1cc(Cl)cc(C#N)c1 (stereo not shown) [Compound 52 trifluoroacetate, 3-chloro-5-(2-(4-((2-(4-(1-(1-(2-(2,6-dioxopiperidin-3-yl)-1,3-dioxoisoindolin-5-yl)piperidin-3-yl)azetidin-3-yl)piperazin-1-yl)pyrimidin-4-yl)methoxy)phenyl)propan-2-yl)benzonitrile] | 956
CC(C)(c1ccc(OCc2ccnc(N3CCN(C4CN(C5CC6(CCN(c7ccc8c(c7)C(=O)N(C7CCC(=O)NC7=O)C8=O)CC6)C5)C4)CC3)n2)cc1)c1cc(Cl)cc(C#N)c1 (stereo not shown) [Compound 53 trifluoroacetate, 3-chloro-5-(2-(4-((2-(4-(1-(7-(2-(2,6-dioxopiperidin-3-yl)-1,3-dioxoisoindolin-5-yl)-7-azaspiro[3.5]nonan-2-yl)azetidin-3-yl)piperazin-1-yl)pyrimidin-4-yl)methoxy)phenyl)propan-2-yl)benzonitrile] | 623
CC(C)(c1ccc(OCc2ccnc(N3CCN(C4CN(C5CCN(c6ccc7c(c6)C(=O)N(C6CCC(=O)NC6=O)C7=O)C5)C4)CC3)n2)cc1)c1cc(Cl)cc(C#N)c1 (stereo not shown) [Compound 55 trifluoroacetate, 3-chloro-5-(2-(4-((2-(4-(1-(1-(2-(2,6-dioxopiperidin-3-yl)-1,3-dioxoisoindolin-5-yl)pyrrolidin-3-yl)azetidin-3-yl)piperazin-1-yl)pyrimidin-4-yl)methoxy)phenyl)propan-2-yl)benzonitrile] | 519
